Data published in patent EP4691482A1, “LONG-ACTING CALCITONIN ANALOG” (Chengdu Aoda Biotechnology Co., Ltd., priority 2023, dated 2024).

Target: T1, calcitonin receptors (CTR) (Homo sapiens, UniProt P30988)
T1 construct: expressed in transfected cells; host or cells: cAMP Hunter HEK293-CT-R Gs cell line (HEK293, stably transfected)
T1 sequence (P30988 25-474): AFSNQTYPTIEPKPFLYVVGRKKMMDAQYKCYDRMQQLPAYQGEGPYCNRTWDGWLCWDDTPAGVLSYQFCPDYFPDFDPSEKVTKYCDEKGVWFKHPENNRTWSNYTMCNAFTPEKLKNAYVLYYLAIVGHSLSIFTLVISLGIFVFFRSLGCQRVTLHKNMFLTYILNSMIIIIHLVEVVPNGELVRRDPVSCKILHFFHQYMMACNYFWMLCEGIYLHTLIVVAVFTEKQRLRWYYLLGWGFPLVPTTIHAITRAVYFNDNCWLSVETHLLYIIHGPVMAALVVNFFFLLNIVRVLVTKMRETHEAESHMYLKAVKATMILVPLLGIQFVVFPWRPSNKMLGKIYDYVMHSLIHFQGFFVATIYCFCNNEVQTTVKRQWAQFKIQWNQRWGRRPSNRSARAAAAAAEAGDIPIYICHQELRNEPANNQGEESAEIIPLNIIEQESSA
Experiment: cAMP determination (HTRF, cAMP Dynamic 2 Kit) in cAMP Hunter HEK293-CT-R Gs cell line
Type: cell-based
Settings: HEK293 cell line stably expressing CT-R; intracellular cAMP, HTRF
Excerpt: Upon activation by a ligand, Gas-coupled GPCRs can upregulate intracellular cAMP level, and cAMP, as a second messenger, can mediate a series of cellular responses. The cAMP Hunter HEK293-CT-R Gs cell line, which overexpresses Gas-coupled calcitonin receptors (CTR), was used. The binding of calcitonin (or an analog thereof) to the overexpressed CTR upregulates intracellular cAMP level. The amount of intracellular cAMP produced after activation by the calcitonin (or an analog thereof) was detected using a cAMP Dynamic 2 Kit to evaluate the biological activity of the calcitonin (or an analog thereof). HEK293 cell line stably expressing CT-R was used. Stably transfected cells were stimulated with various concentrations of agonists. The time-resolved fluorescence resonance energy signal from the cells after stimulation with different doses was measured using HTRF technology, from which the biological activity of the agonist was subsequently calculated.

| EC50 [pM] | Structure (SMILES) |
| --- | --- |
| 4.1 | CC(C)C[C@H](NC(=O)[C@H](CCCCN)NC(=O)CNC(=O)[C@H](CC(C)C)NC(=O)[C@@H](NC(=O)[C@@H]1CSSC[C@H](N)C(=O)N[C@@H](CO)C(=O)N[C@@H](CC(N)=O)C(=O)N[C@@H](CC(C)C)C(=O)N[C@@H](CO)C(=O)N[C@@H]([C@@H](C)O)C(=O)N1)C(C)C)C(=O)N[C@@H](CO)C(=O)N[C@@H](CCC(N)=O)C(=O)N[C@@H](CCC(=O)O)C(=O)N[C@@H](CC(C)C)C(=O)N[C@@H](Cc1c[nH]cn1)C(=O)N[C@@H](CCCCNC(=O)CNC(=O)CNC(=O)[C@H](CO)NC(=O)CNC(=O)[C@H](CO)NC(=O)CNC(=O)[C@H](CO)NC(=O)CNC(=O)CC[C@H](NC(=O)CCCCCCCCCCCCCCCCCCC(=O)O)C(=O)O)C(=O)N[C@@H](CC(C)C)C(=O)N[C@@H](CCC(N)=O)C(=O)N[C@H](C(=O)N[C@@H](Cc1ccc(O)cc1)C(=O)N1CCC[C@H]1C(=O)N[C@@H](CCCNC(=N)N)C(=O)N[C@H](C(=O)N[C@@H](CC(N)=O)C(=O)N[C@H](C(=O)NCC(=O)N[C@@H](CO)C(=O)NCC(=O)N[C@H](C(=O)N1CCC[C@H]1C(N)=O)[C@@H](C)O)[C@@H](C)O)[C@@H](C)O)[C@@H](C)O [Compound 9] |
| 4.9 | CC(C)C[C@H](NC(=O)[C@H](CCCCN)NC(=O)CNC(=O)[C@H](CC(C)C)NC(=O)[C@@H](NC(=O)[C@@H]1CSSC[C@H](N)C(=O)N[C@@H](CO)C(=O)N[C@@H](CC(N)=O)C(=O)N[C@@H](CC(C)C)C(=O)N[C@@H](CO)C(=O)N[C@@H]([C@@H](C)O)C(=O)N1)C(C)C)C(=O)N[C@@H](CO)C(=O)N[C@@H](CCC(N)=O)C(=O)N[C@@H](CCC(=O)O)C(=O)N[C@@H](CC(C)C)C(=O)N[C@@H](Cc1c[nH]cn1)C(=O)N[C@@H](CCCCNC(=O)CNC(=O)CC[C@H](NC(=O)CCCCCCCCCCCCCCCCCCC(=O)O)C(=O)O)C(=O)N[C@@H](CC(C)C)C(=O)N[C@@H](CCC(N)=O)C(=O)N[C@H](C(=O)N[C@@H](Cc1ccc(O)cc1)C(=O)N1CCC[C@H]1C(=O)N[C@@H](CCCNC(=N)N)C(=O)N[C@H](C(=O)N[C@@H](CC(N)=O)C(=O)N[C@H](C(=O)NCC(=O)N[C@@H](CO)C(=O)NCC(=O)N[C@H](C(=O)N1CCC[C@H]1C(N)=O)[C@@H](C)O)[C@@H](C)O)[C@@H](C)O)[C@@H](C)O [Compound 10, Cys-Ser-Asn-Leu-Ser-Thr-Cys-Val-Leu-Gly-Lys-Leu-Ser-Gln-Glu-Leu-His-Lys(Gly-yGlu-eicosanedioic acid)-Leu-Gln-Thr-Tyr-Pro-Arg-Thr-Asn-Thr-Gly-Ser-Gly-Thr-Pro-NH2] |
| 4.3 | CC(C)C[C@H](NC(=O)[C@H](CCCCN)NC(=O)CNC(=O)[C@H](CC(C)C)NC(=O)[C@@H](NC(=O)[C@@H]1CSSC[C@H](N)C(=O)N[C@@H](CO)C(=O)N[C@@H](CC(N)=O)C(=O)N[C@@H](CC(C)C)C(=O)N[C@@H](CO)C(=O)N[C@@H]([C@@H](C)O)C(=O)N1)C(C)C)C(=O)N[C@@H](CO)C(=O)N[C@@H](CCC(N)=O)C(=O)N[C@@H](CCC(=O)O)C(=O)N[C@@H](CC(C)C)C(=O)N[C@@H](Cc1c[nH]cn1)C(=O)N[C@@H](CCCCNC(=O)CNC(=O)CNC(=O)CC[C@H](NC(=O)CCCCCCCCCCCCCCCCCCC(=O)O)C(=O)O)C(=O)N[C@@H](CC(C)C)C(=O)N[C@@H](CCC(N)=O)C(=O)N[C@H](C(=O)N[C@@H](Cc1ccc(O)cc1)C(=O)N1CCC[C@H]1C(=O)N[C@@H](CCCNC(=N)N)C(=O)N[C@H](C(=O)N[C@@H](CC(N)=O)C(=O)N[C@H](C(=O)NCC(=O)N[C@@H](CO)C(=O)NCC(=O)N[C@H](C(=O)N1CCC[C@H]1C(N)=O)[C@@H](C)O)[C@@H](C)O)[C@@H](C)O)[C@@H](C)O [Compound 11] |
| 3.9 | CC(C)C[C@H](NC(=O)[C@H](CCCCN)NC(=O)CNC(=O)[C@H](CC(C)C)NC(=O)[C@@H](NC(=O)[C@@H]1CSSC[C@H](N)C(=O)N[C@@H](CO)C(=O)N[C@@H](CC(N)=O)C(=O)N[C@@H](CC(C)C)C(=O)N[C@@H](CO)C(=O)N[C@@H]([C@@H](C)O)C(=O)N1)C(C)C)C(=O)N[C@@H](CO)C(=O)N[C@@H](CCC(N)=O)C(=O)N[C@@H](CCC(=O)O)C(=O)N[C@@H](CC(C)C)C(=O)N[C@@H](Cc1c[nH]cn1)C(=O)N[C@@H](CCCCNC(=O)CNC(=O)CNC(=O)CNC(=O)CC[C@H](NC(=O)CCCCCCCCCCCCCCCCCCC(=O)O)C(=O)O)C(=O)N[C@@H](CC(C)C)C(=O)N[C@@H](CCC(N)=O)C(=O)N[C@H](C(=O)N[C@@H](Cc1ccc(O)cc1)C(=O)N1CCC[C@H]1C(=O)N[C@@H](CCCNC(=N)N)C(=O)N[C@H](C(=O)N[C@@H](CC(N)=O)C(=O)N[C@H](C(=O)NCC(=O)N[C@@H](CO)C(=O)NCC(=O)N[C@H](C(=O)N1CCC[C@H]1C(N)=O)[C@@H](C)O)[C@@H](C)O)[C@@H](C)O)[C@@H](C)O [Compound 12] |
| 3.5 | CC(C)C[C@H](NC(=O)[C@H](CCCCN)NC(=O)CNC(=O)[C@H](CC(C)C)NC(=O)[C@@H](NC(=O)[C@@H]1CSSC[C@H](N)C(=O)N[C@@H](CO)C(=O)N[C@@H](CC(N)=O)C(=O)N[C@@H](CC(C)C)C(=O)N[C@@H](CO)C(=O)N[C@@H]([C@@H](C)O)C(=O)N1)C(C)C)C(=O)N[C@@H](CO)C(=O)N[C@@H](CCC(N)=O)C(=O)N[C@@H](CCC(=O)O)C(=O)N[C@@H](CC(C)C)C(=O)N[C@@H](Cc1c[nH]cn1)C(=O)N[C@@H](CCCCNC(=O)CNC(=O)CNC(=O)CNC(=O)CNC(=O)CC[C@H](NC(=O)CCCCCCCCCCCCCCCCCCC(=O)O)C(=O)O)C(=O)N[C@@H](CC(C)C)C(=O)N[C@@H](CCC(N)=O)C(=O)N[C@H](C(=O)N[C@@H](Cc1ccc(O)cc1)C(=O)N1CCC[C@H]1C(=O)N[C@@H](CCCNC(=N)N)C(=O)N[C@H](C(=O)N[C@@H](CC(N)=O)C(=O)N[C@H](C(=O)NCC(=O)N[C@@H](CO)C(=O)NCC(=O)N[C@H](C(=O)N1CCC[C@H]1C(N)=O)[C@@H](C)O)[C@@H](C)O)[C@@H](C)O)[C@@H](C)O [Compound 13] |
| 3.1 | CC(C)C[C@H](NC(=O)[C@H](CCCCN)NC(=O)CNC(=O)[C@H](CC(C)C)NC(=O)[C@@H](NC(=O)[C@@H]1CSSC[C@H](N)C(=O)N[C@@H](CO)C(=O)N[C@@H](CC(N)=O)C(=O)N[C@@H](CC(C)C)C(=O)N[C@@H](CO)C(=O)N[C@@H]([C@@H](C)O)C(=O)N1)C(C)C)C(=O)N[C@@H](CO)C(=O)N[C@@H](CCC(N)=O)C(=O)N[C@@H](CCC(=O)O)C(=O)N[C@@H](CC(C)C)C(=O)N[C@@H](Cc1c[nH]cn1)C(=O)N[C@@H](CCCCNC(=O)CNC(=O)CNC(=O)CNC(=O)CNC(=O)CNC(=O)CC[C@H](NC(=O)CCCCCCCCCCCCCCCCCCC(=O)O)C(=O)O)C(=O)N[C@@H](CC(C)C)C(=O)N[C@@H](CCC(N)=O)C(=O)N[C@H](C(=O)N[C@@H](Cc1ccc(O)cc1)C(=O)N1CCC[C@H]1C(=O)N[C@@H](CCCNC(=N)N)C(=O)N[C@H](C(=O)N[C@@H](CC(N)=O)C(=O)N[C@H](C(=O)NCC(=O)N[C@@H](CO)C(=O)NCC(=O)N[C@H](C(=O)N1CCC[C@H]1C(N)=O)[C@@H](C)O)[C@@H](C)O)[C@@H](C)O)[C@@H](C)O [Compound 14] |
| 6.5 | CC(C)C[C@H](NC(=O)[C@H](CCCCN)NC(=O)CNC(=O)[C@H](CC(C)C)NC(=O)[C@@H](NC(=O)[C@@H]1CSSC[C@H](N)C(=O)N[C@@H](CO)C(=O)N[C@@H](CC(N)=O)C(=O)N[C@@H](CC(C)C)C(=O)N[C@@H](CO)C(=O)N[C@@H]([C@@H](C)O)C(=O)N1)C(C)C)C(=O)N[C@@H](CO)C(=O)N[C@@H](CCC(N)=O)C(=O)N[C@@H](CCC(=O)O)C(=O)N[C@@H](CC(C)C)C(=O)N[C@@H](Cc1c[nH]cn1)C(=O)N[C@@H](CCCCNC(=O)CNC(=O)CNC(=O)CNC(=O)CNC(=O)CNC(=O)CNC(=O)CC[C@H](NC(=O)CCCCCCCCCCCCCCCCCCC(=O)O)C(=O)O)C(=O)N[C@@H](CC(C)C)C(=O)N[C@@H](CCC(N)=O)C(=O)N[C@H](C(=O)N[C@@H](Cc1ccc(O)cc1)C(=O)N1CCC[C@H]1C(=O)N[C@@H](CCCNC(=N)N)C(=O)N[C@H](C(=O)N[C@@H](CC(N)=O)C(=O)N[C@H](C(=O)NCC(=O)N[C@@H](CO)C(=O)NCC(=O)N[C@H](C(=O)N1CCC[C@H]1C(N)=O)[C@@H](C)O)[C@@H](C)O)[C@@H](C)O)[C@@H](C)O [Compound 15] |
